Results reported in the METLIN SMRT retention time set (Domingo-Almenara et al. 2019).

Experiment: gradient 5% acetonitrile 3 min, to 50% in 2 min, to 85% in 15 min, held 3 min, 100 µL/min
Conditions: column: Zorbax Extend-C18 2.1 x 50 mm; eluents: water / acetonitrile, 0.1% formic acid
Summary of the method: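 A Zorbax Extend-C18 column (2.1 × 50 mm, 1.8 μm) run at 100 μL/min with water and acetonitrile, both containing 0.1% formic acid, separated mixtures of ~100 pure standards. The HPLC was coupled to a quadrupole time-of-flight mass spectrometer operated in positive and negative ionization mode, with dead and dwell volumes of 40 μL and 900 μL. Each retention time was taken from a computationally picked adduct peak that was then manually inspected.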

| SMILES | RP-LC retention time |
| --- | --- |
| COc1ccccc1C1(CNC(=O)Cc2ccccc2Cl)CCOCC1 | 817 s |
| CN(C)CCCNc1ncnc2c1cnn2-c1cccc(Cl)c1 | 653 s |
| O=C(NCc1ccc(F)cc1F)c1csc(C(=O)NC2CC2)n1 | 789 s |
| COc1ccc(CNC(=O)Cn2nc3c(N4CCCCCC4)nccn3c2=O)cc1 | 679 s |
| Cc1noc2nc(C)n(CC(=O)NCc3cccc(F)c3)c(=O)c12 | 740 s |
| CC(=O)Nc1ccc(C(=O)NCc2ccc(C)o2)c(N2CCOCC2)c1 | 684 s |
| O=C(NC1CC1)C1CCN(c2nnc(-c3ccccc3)o2)CC1 | 657 s |
| CCCN(C)c1nccn2c(=O)n(CC(=O)Nc3cccc(C(F)(F)F)c3)nc12 | 753 s |
| Cc1cccc(-c2nc(C3CCN(S(=O)(=O)c4ccc(F)cc4)CC3)no2)c1 | 1110 s |
| COc1cc(-c2nc3ccc(Cl)cn3c2Nc2ccc(C)cc2)ccc1O | 730 s |
| CSc1ccc(CCNC(=O)Cn2nc(-n3cccc3)c3c(C)cc(C)nc32)cc1 | 1050 s |
| CN(C)c1ccc(CNC(=O)c2ccc3c(c2)N(C)C(=O)C2CCCCN32)cc1 (centres undefined) | 628 s |
| COc1cccc(-c2csc(Cc3nc(-c4ccccc4Cl)no3)n2)c1 | 1150 s |
| Cc1ccc(-n2nc(C)c3c(=O)n(CC(=O)N4CCN(c5cc(Cl)ccc5C)CC4)ccc32)cc1 | 1100 s |
| O=C(C1CCN(c2cn[nH]c(=O)c2)C1)N1CCCC1 (centres undefined) | 571 s |
| CCc1cccc(NC(=O)C2CCN(S(=O)(=O)c3cc(C(=O)N4CCCC4)n(C)c3)CC2)c1 | 872 s |
| O=C(Cn1nc(N2CCCCCC2)c2ccccc2c1=O)Nc1cccc(Cl)c1 | 1180 s |
| CCn1cnc2ccc(-c3noc(-c4cc(OC)cc(OC)c4)n3)cc21 | 797 s |
| Cc1ccc(-c2nc(-c3ccc(-c4noc(CNS(=O)(=O)c5ccccc5)n4)cc3)cs2)s1 | 1290 s |
| COc1ccc(-c2noc(Cc3nnc(-c4cc(F)cc(F)c4)o3)n2)cc1OC | 924 s |
| CSc1ccc(NC(=O)c2c(C)sc3ncnc(N4CCCC(C)C4)c23)cc1 (centres undefined) | 1250 s |
| Brc1ccc(-c2csc(Cc3nc(-c4ccc5c(c4)OCO5)no3)n2)cc1 | 1300 s |

| SMILES | RP-LC retention time |
| --- | --- |
| CCN1CCCC1CNC(=O)CCc1cc2cc(C)ccc2[nH]c1=O (centres undefined) | 588 s |
| O=C(Cn1cnc2nc(N3CCCC(C(=O)NC4CC4)C3)sc2c1=O)Nc1ccccc1F (centres undefined) | 668 s |
| O=S(=O)(Cc1ccccc1Cl)NCC1CCN(Cc2ccsc2)CC1 | 588 s |
| O=c1c2cc(-c3ccc(F)cc3)nn2ccn1Cc1ccccc1Cl | 1120 s |
| Cc1cccc(OCC(=O)N2CCc3cc(-c4ccno4)ccc32)c1 | 974 s |
| Cc1cc2cc3n(c2nn1)N=C(Cl)CC3 | 610 s |
| O=C(Nc1nc(-c2ccccc2)c(-c2ccccc2)s1)C1=COCCO1 | 1060 s |
| COCCN1C(=O)CCc2cc(NS(=O)(=O)c3ccc(Cl)cc3)ccc21 | 771 s |
| COc1ccc(C2=NC3(CCCCC3)N(CC(=O)Nc3cc(OC)cc(OC)c3)C2=O)cc1 | 660 s |
| Cc1nn(C(C)C(=O)Nc2ccc(Cl)cn2)c(=O)c2c(-n3cccc3)n(-c3ccccc3)nc12 (centres undefined) | 1120 s |
| CN(CCCNC(=O)Cn1c(=O)c2cccn2c2ccc(F)cc21)C1CCCCC1 | 635 s |
| O=C(NCCc1ccccc1)Nc1nccn(-c2ccc(F)c(F)c2)c1=O | 903 s |
| O=C1NC2C(=CC(O)C(O)C2O)c2cc3c(cc21)OCO3 (centres undefined) | 568 s |
| O=C(COc1ccc(Cl)cc1Cl)NCC1CCN(C(=O)Oc2ccccc2)CC1 | 987 s |
| CCCOC(=O)c1cnc2nc(C)ccc2c1NCc1ccc2c(c1)OCO2 | 734 s |
| Cc1cccc(OCC(=O)NC2CCN(Cc3c(C)noc3C)CC2)c1 | 622 s |
| CCc1ccccc1NS(=O)(=O)c1cc2n(c1)CCCNC2=O | 663 s |
| Cc1c(S(=O)(=O)NCc2cccs2)c(C)n(C)c1-c1nnc(C2CCC2)o1 | 893 s |
| CCOc1ccc(C(=O)N2CCC3(CC2)c2nccn2-c2ccccc2CN3C)cc1 | 632 s |
| CCOC(=O)/C=C/c1ccc(C(=O)OCC)[nH]1 | 947 s |
| Cn1cnc2ccc(-c3noc(CNS(=O)(=O)c4ccccc4)n3)cc21 | 739 s |
| O=C(NCC1CCCO1)C1CCCN(c2ccc(Sc3ccc(Br)cc3)nn2)C1 (centres undefined) | 793 s |
